According to patent publication US20080241870A1, “Composition For Creating an Artificial Bone Marrow Like Environment and Use Thereof” (NATIONAL CENTRE FOR CELL SCINECES, priority 2005, published 2008):

Legend:
Type in all cases: cell-based, human
SPC = test: priming of SPC before contact with ABME, colony formation; details: for colony/blood cell formation after priming SPC: SPC primed with agent
Excerpt: Experiments were directed to determine if the ABME had properties that promoted cell survival.

αiib:β3 integrin = test: engraftment: HCFA of CD34+ SPC attached to ABME formed via αiib:β3 integrin signaling; details: FIG. 7
Protocol: The mesenchyme cells (5×10^4 cells per well in a 24 well dish) were grown in IMDM plus 20% fetal bovine serum until they were nearly confluent. The medium was removed and was washed 2× with PBS. ABME was prepared by using a chemical hematomodulator [Biotin-Ser-Gly-Ser-Gly-Cys*-Asn-Pro-Arg-Gly-Asp (Tyr-OMe)Arg-Cys*Lys (cyclised between C*-C*), 10 microgram ml^−1, 18 hours] that selectively activated αiib:β3 integrin signaling in the mesenchyme cells. The ABME formed was washed 2× with PBS and was covered with 0.2 ml of a suspension of CD34^+ SPC cells (10^5 ml−1) for 1 hour, in the presence or absence of another peptide [1-Adamantaneacetyl-Cys*Gly-Arg-Gly-Asp-Ser-Pro-C(Cyclised between Cys*-Cys*)]which inhibited the interactions of αiib:β3 integrin. At the end of incubation, the cells were washed 2× with PBS and were processed for hematopoietic colony formation assays (HCFA). […] More specifically, the quantities of hematopoietic growth factors used routinely in HCFA were, 2 International Units per milliliter (2 I.U.ml^−1) of Erythropoietin (EPO), 50 nanogram per milliliter (50 ng.ml^−1) of Stem Cell Factor (SCF) and 20 nanogram per milliliter (20 ng/ml^−1) each of Granulocyte-Macrophage-Colony Stimulating Factor (GM-CSF), Granulocyte-Colony Stimulating Factor (G-CSF), Interleukin-1 beta (IL-1β), Interleukin-3 (IL-3) and Interleukin-6 (IL-6). […]

CD34+ SPC = test: lineage commitment: HCFA with CD34+ SPC, count of mature blood cells after 14 days
Protocol: The mesenchyme cells (5×10^4 cells per well in a 24 well dish) were grown in IMDM plus 20% fetal bovine serum until they were nearly confluent. The medium was removed and was washed 2× with PBS. Two different ABME were prepared by using two biological hematomodulators (TGFβ1 10 ngml^−1, bFGF 10 ngml^−1, 18 hours) separately. The ABME formed was washed 2× with PBS and was covered with 0.2 ml of a suspension of CD34^+ SPC cells (10^5 ml−1) for 1 hour at 37° C. All the cells of the dish were then harvested after washing and were used in a HCFA. After 14 days, the mature blood cells formed were harvested and an aliquot of the suspension was examined under the microscope to identify and count the mature lymphoid and myeloid cells.
The mesenchyme cells (5×10^4 cells per well in a 24 well dish) were grown in IMDM plus 20% fetal bovine serum until they were nearly confluent. The medium was removed and was washed 2× with PBS. The cells in one well were treated with a DiBromo derivative of the Calcium ion chelator BAPTA (5 micromolar) for one hour whereas another well received only the medium without the BAPTA derivative. After 1 hour of incubation at 37° C., TGFβ1 was added to both the wells (10 ng ml−1) and the incubation was continued for a further period of 18 hours. The ABME formed in both wells were washed and were used for HCFA using CD34^+ SPC. After 14 days the mature blood cells were harvested and were quantitated for the cells of erythroid and myeloid lineage.

[1] = system: mesenchymal cells (ABME) with MNC; test: quantitative hematopoietic colony formation assay for ABME (HCFA-ABME): MNC with hematomodulator-contacted mesenchymal cells
Excerpt: As described above, the medium for blood cell formation employed may be IMDM with 20% serum and supplemented with interleukins such as IL-lbeta, IL-3, and IL-6, stem cell factor, lineage specific growth factors such as erythropoietin and GM-CSF, G-CSF; and methyl cellulose to the extent of 0.8%, the culture is maintained for 12-14 days under the culture conditions whereby blood cell colonies grow well or form colonies and clearly the growth is visible/distinguishable for further analysis and use. An assay designed in a similar manner to assess quantitative nature of ABME function is referred hereafter as ‘quantitative hematopoietic colony formation assay for ABME (HCFA-ABME)’.
Several experiments were conducted to determine that mesenchymal cells exert direct influence on SPC cell-fate. In one set of experiments, mesenchymal cells were cultured separately and nearly 50,000 of them were exposed to a typical HCFA medium comprising 0.8% methyl cellulose in IMDM and 20-30% serum along with excess amounts of various purified and human specific cytokines and hematopoietic colony stimulating growth factors (from Stem cell Technologies, […], Canada). More specifically, the quantities of hematopoietic growth factors used routinely in HCFA were, 2 International Units per milliliter (2 I.U.ml^−1) of Erythropietin (EPO), 50 nanogram per milliliter (50 ng.ml^−1) of Stem Cell Factor (SCF) and 20 nanogram per milliliter (20 ng/ml^−1) each of Granulocyte-Macrophage-Colony Stimulating Factor (GM-CSF), Granulocyte-Colony Stimulating Factor (G-CSF), Interleukin-1 beta (IL-1β), Interleukin-3 (IL-3) and Interleukin-6 (IL-6) {all growth factors and cytokines are from Stem cell Technologies, Vancouver, Canada,}.
In another set of experiments, 50,000 of the same mesenchymal cells were first mixed with nearly 100,000 MNC, held at 37° C. for at least 30 minutes and were processed for colony formation assays. In several experiments, a consistent improvement in the number and cellularity of the hematopoietic colonies was seen when both these two cell types were mixed compared to a reference where only the cells of MNC were used. The increase was ranging from 1.5 to 10-fold. Thus, the enhancement in colony formation obtained with the use of only mesenchymal cells was highly variable and unpredictable among samples. The fact that hematopoietic colonies formed in increased numbers and cellularity only when MNC and mesenchymal cells were processed together is evidence of a new environment created by the mesenchymal cells in which the SPC present in the MNC were more productive. This increase results in activation of the pre-existing but quiescent SPC, formation of new SPC due to self-renewal, and a combination of both factors.
In order to create ABME, the mesenchymal cells were covered with the contacting medium comprising hematomodulators contained in IMDM with 20% human serum or fetal bovine serum for a desirable period (range 8-24 hours) and removed. The contacted cells were then washed 2 times using the contacting medium (IMDM +20% FCS) without hematomodulators and used as such or after harvesting the mesenchymal cells, which now represent the composition of in vitro ABME. Optionally, ABME cells can be configured on supports that will distribute them in two or more dimensions for better results. A requisite number of MNC/SPC and cells of the ABME are taken and kept together for a suitable duration (range 0.5 to 6 hours) after which they were processed for in vitro hematopoietic colony formation assays or hematopoiesis.
Thus, the inventors undertook 4 sets of experiments: (a) wherein mononuclear cells were exposed to mesenchymal cells without any treatment; (b) wherein MNC were exposed to mesenchymal cells contacted with a biological agent [TGFβ1] […]

IGF-II: priming agent, Mannose6-phosphate/IGF-II receptor
colony/blood cell formation after priming SPC (SPC): improved colony/blood cell formation

NC(=O)c1cccc(N)c1 [3 Amino Benzamide, reference compound]
colony/blood cell formation after priming SPC (SPC): improved colony/blood cell formation
number of hematopoietic colonies formed from treated SPC (SPC; SPC treated to inhibit Poly(ADP-ribose) Polymerase, FIG. 9): synergistically increasing the number of hematopoietic colonies formed

Biotin-Ser-Gly-Ser-Gly-Cys*-Asn-Pro-Arg-Gly-Asp (Tyr-OMe)Arg-Cys*Lys (cyclised between C*-C*)
hematopoietic colonies formed by ABME (activating peptide) (αiib:β3 integrin; 10 microgram ml^-1, 18 hours, CD34+ SPC 1 hour, HCFA 12-14 days): significantly more number of hematopoietic colonies

O=C(O)CN(CC(=O)O)c1ccc(Br)cc1OCCOc1cc(Br)ccc1N(CC(=O)O)CC(=O)O [DiBromo BAPTA, DiBromo derivative of Ca^++ chelator BAPTA, reference compound]
proportion of myeloid and erythroid cells (CD34+ SPC; 5 micromolar for one hour, then TGFβ1 10 ng ml-1 18 hours, vs TGFβ1 alone, FIG. 8b): significant difference in the proportion of myeloid and erythroid cell population

1-Adamantaneacetyl-Cys*Gly-Arg-Gly-Asp-Ser-Pro-C(Cyclised between Cys*-Cys*) (GRGDSP; N-terminal 1-adamantaneacetyl-Cys, C-terminal Cys; cyclised Cys-Cys; printed: Gly-Arg-Gly-Asp-Ser-Pro-)
hematopoietic colony numbers in presence of inhibitory peptide (αiib:β3 integrin; inhibitor present during SPC contact with ABME formed by activating peptide): colony numbers decreased in an inhibitor dose dependent manner

Latency Associated peptide of human TGF beta1.
colony/blood cell formation after priming SPC (SPC): improved colony/blood cell formation

CC(C)[C@H]1C(=O)N[C@H](CO)Cc2c[nH]c3cccc(c23)N1C [chemical agent 1, (—) Indolactam V, reference compound]
colonies of cells relative to (A) ([1]; MNC exposed to mesenchymal cells contacted with chemical agent, (A) = untreated mesenchymal cells): at least 4 times

IGF-1: priming agent activating IGF-I receptor signals
colony/blood cell formation after priming SPC (SPC): improved colony/blood cell formation

HuFGF-2
mature lymphoid and myeloid cells formed (CD34+ SPC; 10 ngml^-1, 18 hours, HCFA 14 days, FIG. 8a): more of lymphoid cells were produced
efficiency of ABME created ([1]; 1-25 nano gram.ml^-1, mesenchymal cells contacted 8-24 hours): equally efficient ABME
colony formation along lineages GEMM, BFU-E and GM ([1]; lineage specific colony formation assay, FIG. 3A, vs control without biological agent): uniformly stimulated
potency in creating ABME from mesenchymal cells ([1]; used separately): nearly equipotent
